ChEMBL document CHEMBL4765313, “Synthesis, in vitro evaluation and molecular docking of a new class of indolylpropyl benzamidopiperazines as dual AChE and SERT ligands for Alzheimer's disease” (Eur J Med Chem, 2020)
Activity calls are given as the source filed them. The calls are words filed in the database; no cut-off is given here.

Columns and labels:
[1] = Solubility of compound at pH 7.4 at 1 to 100 uM; type: physicochemical; settings: buffer, pH 7.4, 100 µM; dose 1-100 µM
[2] = molecular target: Acetylcholinesterase (Homo sapiens, UniProt P22303); assay: Inhibition of human plasma AChE using acetylthiocholine iodide as substrate preincubated for 15 mins followed by substrate addition and measured after 10 mins by Ellman's method; type: cell-free
[3] = molecular target: Sodium-dependent serotonin transporter (Homo sapiens, UniProt P31645); assay: Displacement of [3H]paroxetine from human SERT expressed in human HEK293 cells incubated for 30 mins by liquid scintillation counting analysis; type: cell-based
[4] = tested on: HEK293; assay: Cytotoxicity against human HEK293 cells assessed as reduction in cell viability incubated for 72 hrs by MTT assay; type: ADME, cell-based; settings: HEK293, 72 h
[5] = tested on: SH-SY5Y; assay: Cytotoxicity against human SH-SY5Y cells assessed as reduction in cell viability incubated for 72 hrs by MTT assay; type: ADME, cell-based
[6] = tested on: N2a; assay: Effect on APP in mouse N2a cells transfected with human APP695 by Western blot analysis; type: functional, cell-based
[7] = Reduction of beta-Amyloid40 level in mouse N2a cells transfected with human APP695 at 10 uM incubated for 16 hrs by ELISA relative to control; type: functional
[8] = tested on: N2a; assay: Decrease in APP-C99 in mouse N2a cells transfected with human APP695 by Western blot analysis; type: functional, cell-based

Sodium-dependent serotonin transporter, sequence (P31645 whole entry): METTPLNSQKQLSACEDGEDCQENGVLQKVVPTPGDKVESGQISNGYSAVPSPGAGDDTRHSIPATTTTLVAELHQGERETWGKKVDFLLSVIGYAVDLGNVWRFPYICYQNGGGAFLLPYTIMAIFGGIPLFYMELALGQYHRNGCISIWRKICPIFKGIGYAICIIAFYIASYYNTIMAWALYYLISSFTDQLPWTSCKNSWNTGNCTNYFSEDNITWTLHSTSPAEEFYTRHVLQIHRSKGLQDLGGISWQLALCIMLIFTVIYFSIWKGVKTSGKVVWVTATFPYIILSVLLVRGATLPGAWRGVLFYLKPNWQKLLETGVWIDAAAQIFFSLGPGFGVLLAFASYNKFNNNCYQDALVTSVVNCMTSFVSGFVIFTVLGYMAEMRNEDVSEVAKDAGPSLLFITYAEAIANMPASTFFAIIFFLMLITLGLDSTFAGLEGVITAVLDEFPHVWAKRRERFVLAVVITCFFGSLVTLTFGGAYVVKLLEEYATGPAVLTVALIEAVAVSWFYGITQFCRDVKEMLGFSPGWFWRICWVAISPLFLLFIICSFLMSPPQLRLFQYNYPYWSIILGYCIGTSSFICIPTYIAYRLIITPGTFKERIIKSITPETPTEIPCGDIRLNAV
Acetylcholinesterase, sequence (P22303 whole entry): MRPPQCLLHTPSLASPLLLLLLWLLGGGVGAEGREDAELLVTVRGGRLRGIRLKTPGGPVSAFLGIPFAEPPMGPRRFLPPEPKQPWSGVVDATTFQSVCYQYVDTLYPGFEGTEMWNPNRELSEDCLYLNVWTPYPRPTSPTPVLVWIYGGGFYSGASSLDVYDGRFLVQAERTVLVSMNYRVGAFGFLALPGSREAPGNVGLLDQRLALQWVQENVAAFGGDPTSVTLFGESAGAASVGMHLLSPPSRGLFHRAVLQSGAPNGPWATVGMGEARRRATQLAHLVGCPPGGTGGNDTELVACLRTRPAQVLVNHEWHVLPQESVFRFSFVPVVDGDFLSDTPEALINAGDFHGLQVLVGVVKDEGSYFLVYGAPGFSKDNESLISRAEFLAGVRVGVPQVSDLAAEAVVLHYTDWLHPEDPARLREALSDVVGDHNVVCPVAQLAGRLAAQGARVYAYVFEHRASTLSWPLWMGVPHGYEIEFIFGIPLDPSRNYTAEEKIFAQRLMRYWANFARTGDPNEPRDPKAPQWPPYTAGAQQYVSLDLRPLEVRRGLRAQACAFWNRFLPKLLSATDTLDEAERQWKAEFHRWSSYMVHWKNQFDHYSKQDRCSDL

| SMILES | solubility [1] | IC50 [2] | IC50 [3] | IC50 [4] | IC50 [5] | Activity [6] | inhibition at 10 µM [7] | inhibition [8] |
| --- | --- | --- | --- | --- | --- | --- | --- | --- |
| COc1ccc2[nH]cc(CCCN3CCN(C(=O)CN4CCN(C(=O)c5ccc(F)cc5)CC4)CC3)c2c1 | Soluble | > 50 µM | > 1000 µM | > 200 µM | > 200 µM |  |  |  |
| COc1ccc2[nH]cc(CCCN3CCN(C(=O)CN4CCN(C(=O)c5cccc(F)c5)CC4)CC3)c2c1 | Soluble | 37.3 µM | > 1000 µM | > 200 µM | > 200 µM |  |  |  |
| COc1ccc2[nH]cc(CCCN3CCN(C(=O)CN4CCN(C(=O)c5cccc(Cl)c5)CC4)CC3)c2c1 | Soluble | > 50 µM | > 1000 µM | 143 µM | > 200 µM |  |  |  |
| COc1cccc(C(=O)N2CCN(CC(=O)N3CCN(CCCc4c[nH]c5ccc(F)cc45)CC3)CC2)c1 | Soluble | 19.4 µM | 83 µM | 87.1 µM | 79.4 µM |  |  |  |
| Cc1ccc(C(=O)N2CCN(CC(=O)N3CCN(CCCc4c[nH]c5ccc(F)cc45)CC3)CC2)cc1 | Soluble | 3.6 µM | 122 µM | 141 µM | 119 µM |  |  |  |
| O=C(CN1CCN(C(=O)c2ccc(Br)cc2)CC1)N1CCN(CCCc2c[nH]c3ccccc23)CC1 | Soluble | 35.7 µM | > 1000 µM | 71.9 µM | 59.3 µM |  |  |  |
| COc1ccc2[nH]cc(CCCN3CCN(C(=O)CN4CCN(C(=O)c5ccc(C)cc5)CC4)CC3)c2c1 | Soluble | > 50 µM | > 1000 µM | 147 µM | > 200 µM |  |  |  |
| O=C(CN1CCN(C(=O)c2cccc(F)c2)CC1)N1CCN(CCCc2c[nH]c3ccc(F)cc23)CC1 | Soluble | > 50 µM | 69 µM | 83 µM | 169 µM |  |  |  |
| COc1ccc2[nH]cc(CCCN3CCN(C(=O)CN4CCN(C(=O)c5ccccc5Br)CC4)CC3)c2c1 | Soluble | > 50 µM | > 1000 µM | 163 µM | 111 µM |  |  |  |
| COc1ccc2[nH]cc(CCCN3CCN(C(=O)CN4CCN(C(=O)c5ccc(Br)cc5)CC4)CC3)c2c1 | Soluble | > 50 µM | > 1000 µM | 80.5 µM | 150 µM |  |  |  |
| O=C(CN1CCN(C(=O)c2cccc(Cl)c2)CC1)N1CCN(CCCc2c[nH]c3ccccc23)CC1 | Soluble | 32.4 µM | > 1000 µM | 99.1 µM | 120 µM |  |  |  |
| COc1ccc2[nH]cc(CCCN3CCN(C(=O)CN4CCN(C(=O)c5cccc(Br)c5)CC4)CC3)c2c1 | Soluble | > 50 µM | > 1000 µM | 57 µM | 105 µM |  |  |  |
| O=C(CN1CCN(C(=O)c2ccc(Cl)cc2)CC1)N1CCN(CCCc2c[nH]c3ccccc23)CC1 | Soluble | 35.2 µM | > 1000 µM | 98.2 µM | 139 µM |  |  |  |
| O=C(CN1CCN(C(=O)c2cccc(Br)c2)CC1)N1CCN(CCCc2c[nH]c3ccc(F)cc23)CC1 | Soluble | 37.3 µM | 181 µM | 40.6 µM | 71.6 µM |  |  |  |
| Cc1ccc(C(=O)N2CCN(CC(=O)N3CCN(CCCc4c[nH]c5ccccc45)CC3)CC2)cc1 | Soluble | 29.4 µM | > 1000 µM | 158 µM | > 200 µM |  |  |  |
| O=C(CN1CCN(C(=O)c2ccc(F)cc2)CC1)N1CCN(CCCc2c[nH]c3ccccc23)CC1 | Soluble | 39.4 µM | > 1000 µM | 141 µM | 188 µM |  |  |  |
| O=C(CN1CCN(C(=O)c2cccc(Br)c2)CC1)N1CCN(CCCc2c[nH]c3ccccc23)CC1 | Soluble | 23 µM | > 1000 µM | 80.7 µM | 80.5 µM | inactive | 50% | Active |
| O=C(CN1CCN(C(=O)c2ccc(Cl)cc2)CC1)N1CCN(CCCc2c[nH]c3ccc(F)cc23)CC1 | Soluble | 22.3 µM | 546 µM | 44.5 µM | 125 µM |  |  |  |

| SMILES | solubility [1] | IC50 [2] | IC50 [3] | IC50 [4] | IC50 [5] | Activity [6] | inhibition at 10 µM [7] | inhibition [8] |
| --- | --- | --- | --- | --- | --- | --- | --- | --- |
| COc1cccc(C(=O)N2CCN(CC(=O)N3CCN(CCCc4c[nH]c5ccc(OC)cc45)CC3)CC2)c1 | Soluble | > 50 µM | > 1000 µM | > 200 µM | > 200 µM |  |  |  |
| O=C(CN1CCN(C(=O)c2ccccc2)CC1)N1CCN(CCCc2c[nH]c3ccc(F)cc23)CC1 | Soluble | > 50 µM | 320 µM | 148 µM | 146 µM |  |  |  |
| COc1ccc(C(=O)N2CCN(CC(=O)N3CCN(CCCc4c[nH]c5ccc(OC)cc45)CC3)CC2)cc1 | Soluble | > 50 µM | > 1000 µM | 190 µM | 190 µM |  |  |  |
| O=C(CN1CCN(C(=O)c2cccc(Cl)c2)CC1)N1CCN(CCCc2c[nH]c3ccc(F)cc23)CC1 | Soluble | 18.4 µM | 149 µM | 66.2 µM | 59.8 µM |  |  |  |
| COc1cccc(C(=O)N2CCN(CC(=O)N3CCN(CCCc4c[nH]c5ccccc45)CC3)CC2)c1 | Soluble | > 50 µM | > 1000 µM | 143 µM | > 200 µM |  |  |  |
| O=C(CN1CCN(C(=O)c2ccccc2Br)CC1)N1CCN(CCCc2c[nH]c3ccc(F)cc23)CC1 | Soluble | 33.3 µM | 1.9 µM | 77.1 µM | 79.1 µM |  |  |  |
| O=C(CN1CCN(C(=O)c2cccc(F)c2)CC1)N1CCN(CCCc2c[nH]c3ccccc23)CC1 | Soluble | > 50 µM | > 1000 µM | 182 µM | 165 µM |  |  |  |
| COc1cc2c(cc1OC)C(=O)C(CC1CCN(Cc3ccccc3)CC1)C2 (stereo not drawn) [DONEPEZIL] |  |  | > 1000 µM |  |  |  |  |  |
| COc1ccc2[nH]cc(CCCN3CCN(C(=O)CN4CCN(C(=O)c5ccc(Cl)cc5)CC4)CC3)c2c1 | Soluble | > 50 µM | > 1000 µM | 117 µM | 158 µM |  |  |  |
| O=C(CN1CCN(C(=O)c2ccc(F)cc2)CC1)N1CCN(CCCc2c[nH]c3ccc(F)cc23)CC1 | Soluble | 3.4 µM | 212 µM | 102 µM | 121 µM |  |  |  |
| COc1ccc(C(=O)N2CCN(CC(=O)N3CCN(CCCc4c[nH]c5ccccc45)CC3)CC2)cc1 | Soluble | 25.1 µM | > 1000 µM | 156 µM | 148 µM |  |  |  |
| COc1ccc2[nH]cc(CCCN3CCN(C(=O)CN4CCN(C(=O)c5ccccc5)CC4)CC3)c2c1 | Soluble | > 50 µM | > 1000 µM | > 200 µM | > 200 µM |  | 37% |  |
| CN(C)CCCC1(c2ccc(F)cc2)OCc2cc(C#N)ccc21 (stereo not drawn) [CITALOPRAM] |  | 73.3 µM |  | > 200 µM | > 200 µM |  |  |  |
| COc1ccc(C(=O)N2CCN(CC(=O)N3CCN(CCCc4c[nH]c5ccc(F)cc45)CC3)CC2)cc1 | Soluble | 14.4 µM | 133 µM | 141 µM | 161 µM |  |  |  |
| O=C(CN1CCN(C(=O)c2ccccc2F)CC1)N1CCN(CCCc2c[nH]c3ccccc23)CC1 | Soluble | 20.2 µM | > 1000 µM | 133 µM | 82.6 µM |  |  |  |
| O=C(CN1CCN(C(=O)c2ccccc2)CC1)N1CCN(CCCc2c[nH]c3ccccc23)CC1 | Soluble | > 50 µM | > 1000 µM | > 200 µM | > 200 µM |  |  |  |
| O=C(CN1CCN(C(=O)c2ccc(Br)cc2)CC1)N1CCN(CCCc2c[nH]c3ccc(F)cc23)CC1 | Soluble | 39.4 µM | 9.2 µM | 60.5 µM | 47.4 µM |  |  |  |
